Test results as given in patent US20210035672A1, “METHOD AND […] FOR INDIVIDUALIZED ADMINISTRATION OF MEDICAMENTS FOR […] WITHIN A T[…]” (University Of Maryland, Baltimore, priority 2018, published 2021).

Key:
[1] = cited from earlier work
[2] = Population pharmacokinetics of vancomycin in neonates (hierarchical Bayesian one-compartment model); type: in vivo
Description: Briefly, in step 305, a one-compartment linear disposition model with zero order input (one hour intravenous infusion) and first-order elimination was used to describe the data collected in step 301. In step 303 Weight (Wt) and estimated glomerular filtration rate (EGFR) were included as covariates on clearance (CL), and weight was included as covariate on volume of distribution (V). Back in step 305, a lognormal distribution was used to describe the between-subject-variability (BSV) in model parameter estimates CL and V, as expressed in Equation 8 and Equation 9.
where CLi and Vi are the true parameters for the individual, CLtypical and Vtypical are the population value of the parameters, and ηCL and ηv denote the deviation between the typical value of the parameters and the true parameter value of an individual. The coefficient that describes the relationship between EGFR and CLtypical is denoted by CLEGFR. […] In Table 1, PM indicates posterior median; LCI indicates lower credible interval; and UCI indicates upper credible interval. In other embodiments, based on different datasets or different training approaches, the parameter values are expected to differ to some degree.

CN[C@H](CC(C)C)C(=O)N[C@H]1C(=O)N[C@@H](CC(N)=O)C(=O)N[C@H]2C(=O)N[C@H]3C(=O)N[C@H](C(=O)N[C@H](C(=O)O)c4cc(O)cc(O)c4-c4cc3ccc4O)[C@H](O)c3ccc(c(Cl)c3)Oc3cc2cc(c3O[C@@H]2O[C@H](CO)[C@@H](O)[C@H](O)[C@H]2O[C@H]2C[C@](C)(N)[C@H](O)[C@H](C)O2)Oc2ccc(cc2Cl)[C@H]1O [vancomycin]
patients with AUC0-24 hr exceeding 600 ([1]; current practice): over 30% | final target attainment ([1]; with TDM): ~45% | neonates that initially achieve recommended target concentrations ([1]; with dosing nomograms, studies across the US and Europe): 37% | Interindividual variability CL, posterior median ([2]; in vivo): 22.9 % CV | Interindividual variability V, posterior median ([2]; in vivo): 15.4 % CV | Residual variability, proportional, posterior median ([2]; in vivo): 17.3 % CV | CLtypical, posterior median ([2]; typical individual 2.9 kg, estimated glomerular filtration rate of 30 mL/min per 1.73 m^2, one hour intravenous infusion): 0.167 L/h
